Experimental data published in ChEMBL document CHEMBL1201862, “PubChem BioAssay data set” (2004).
The source made the active and inactive calls.

Columns and labels:
[1] = cytotoxicity in MIN6 insulinoma cells, dose response, cytotoxicity control, cell-based, mouse insulinoma (AID 2122); format: functional;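 also: confirmatory high-throughput counterscreen run to flag cytotoxic compounds; mouse MIN-6 beta cells carrying an insulin promoter eGFP reporter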
[2] = molecular target: Multidrug resistance protein CDR2 (Candida albicans (strain SC5314 / ATCC MYA-2876) (Yeast), UniProt P78595); assay: CaCDR2 efflux pump inhibitors in yeast, dose response, S. cerevisiae AD1-8u, singleplex, Cherry Pick2 set (AID 623994); format: functional; settings: read-out: EC50_MICROM
Jurkat = assay: antigen receptor-induced NF-kB inhibitors, dose response, Jurkat, luciferase reporter, luminescence, B- and T-cell (AID 489004); format: functional, cell-based; settings: Homo sapiens;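 also: NF-kB luciferase reporter Jurkat cells stimulated with PMA plus ionomycin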
[3] = inhibitors of intracellular T. cruzi replication, confirmation, NIH3T3 host cells, beta-gal luminescence (AID 2044); format: functional, cell-based;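 also: intracellular parasites grown in NIH/3T3 mouse fibroblasts as host cells; luminescent beta-galactosidase reporter signal from transgenic T. cruzi replicating inside host cells; inhibitors lower the luminescence signal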
INS1 = assay: beta cell apoptosis inhibitors, cytokine rescue, dose response, luminescence, retest (AID 449756); format: functional, cell-based; settings: Rattus norvegicus;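 also: cell death triggered by IL-1 beta plus TNF-alpha plus IFN-gamma mixture; protective hits raise ATP signal compared with cytokine alone wells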
[4] = cytotoxicity toward NIH3T3 fibroblasts, dose response, counter-screen, cell-based, ATP luminescence, mouse fibroblasts (AID 2010); format: functional;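 also: cells exposed to compound for about 90 hours before reading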
[5] = insulin promoter down-regulators in MIN6 cells, imaging, high-content screening, mouse beta cells (AID 1628); format: functional
[6] = cytotoxicity in HEK-293T NF-kB-Luc cells, dose response, cytotoxicity control for B/T-cell NF-kB inhibitor project, cell-based, uHTS hits (AID 489019); format: functional;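 also: IC50 reflects cytotoxicity as loss of cell viability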
Genome polyprotein = Genome polyprotein (dengue virus type 2, UniProt P29990); assay: Dengue-2 NS5 methyltransferase inhibitors, primary screen, biochemical, confirmation dose response (AID 588689); format: functional
Genome polyprotein, sequence (P29990 2492-3391 limits assumed): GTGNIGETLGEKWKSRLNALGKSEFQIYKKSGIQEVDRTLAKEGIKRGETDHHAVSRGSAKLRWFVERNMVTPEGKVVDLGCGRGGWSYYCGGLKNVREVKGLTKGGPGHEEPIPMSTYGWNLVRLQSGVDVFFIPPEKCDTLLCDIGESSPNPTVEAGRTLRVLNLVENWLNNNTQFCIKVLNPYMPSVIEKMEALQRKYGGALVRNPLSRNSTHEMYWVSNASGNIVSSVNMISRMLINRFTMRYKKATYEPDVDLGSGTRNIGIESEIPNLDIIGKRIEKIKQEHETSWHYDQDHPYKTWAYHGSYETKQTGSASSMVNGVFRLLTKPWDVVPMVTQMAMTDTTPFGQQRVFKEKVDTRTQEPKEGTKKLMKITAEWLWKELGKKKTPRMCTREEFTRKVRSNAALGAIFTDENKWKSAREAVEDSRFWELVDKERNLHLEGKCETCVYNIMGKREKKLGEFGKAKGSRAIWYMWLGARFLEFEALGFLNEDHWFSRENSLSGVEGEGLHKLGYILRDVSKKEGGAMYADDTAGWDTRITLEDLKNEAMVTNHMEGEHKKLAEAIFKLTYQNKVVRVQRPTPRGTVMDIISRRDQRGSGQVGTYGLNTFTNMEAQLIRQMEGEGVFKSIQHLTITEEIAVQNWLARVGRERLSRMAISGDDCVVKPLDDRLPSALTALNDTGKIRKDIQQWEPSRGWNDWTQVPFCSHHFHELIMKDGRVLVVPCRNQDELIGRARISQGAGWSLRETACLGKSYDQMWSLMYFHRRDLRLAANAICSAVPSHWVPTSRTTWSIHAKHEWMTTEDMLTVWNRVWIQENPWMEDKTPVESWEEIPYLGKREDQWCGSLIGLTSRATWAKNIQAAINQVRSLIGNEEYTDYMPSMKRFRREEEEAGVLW

Aspartyl aminopeptidase = molecular target: T1, Aspartyl aminopeptidase (Plasmodium falciparum 3D7, UniProt Q8I2J3); assay: Counterscreen for inhibitors of M1 and M17 aminopeptidases: QFRET-based biochemical high throughput dose response assay for inhibitors of the Plasmodium falciparum M18 Aspartyl Aminopeptidase (PFM18AAP). [Related PubChem assays: 1619 (Screening assay (M17LAP inhibitors).), 1445 (Screening assay (M1AAP inhibitors).)]
T1 sequence (Q8I2J3 whole entry): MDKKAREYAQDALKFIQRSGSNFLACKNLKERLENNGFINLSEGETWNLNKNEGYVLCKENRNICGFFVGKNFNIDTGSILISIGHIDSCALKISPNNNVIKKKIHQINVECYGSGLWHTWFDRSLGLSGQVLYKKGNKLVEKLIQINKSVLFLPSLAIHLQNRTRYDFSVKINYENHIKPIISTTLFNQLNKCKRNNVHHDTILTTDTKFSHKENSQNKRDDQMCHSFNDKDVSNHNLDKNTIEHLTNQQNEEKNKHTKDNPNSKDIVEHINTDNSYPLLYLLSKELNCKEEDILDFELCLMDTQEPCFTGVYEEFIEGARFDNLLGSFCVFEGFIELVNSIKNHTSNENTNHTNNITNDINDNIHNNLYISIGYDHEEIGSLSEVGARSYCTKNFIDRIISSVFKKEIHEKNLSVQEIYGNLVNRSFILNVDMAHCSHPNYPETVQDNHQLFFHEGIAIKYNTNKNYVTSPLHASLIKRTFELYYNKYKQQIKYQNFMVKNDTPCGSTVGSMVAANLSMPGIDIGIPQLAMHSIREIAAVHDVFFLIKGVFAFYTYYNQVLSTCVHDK

Leucine aminopeptidase = molecular target: T2, Leucine aminopeptidase (Plasmodium falciparum 3D7, UniProt Q8IL11); assay: P. falciparum M17LAP inhibitors, primary screen, biochemical, fluorogenic H-Leu-NHMec substrate, 1536-well (AID 1619); format: functional
T2 sequence (Q8IL11 whole entry): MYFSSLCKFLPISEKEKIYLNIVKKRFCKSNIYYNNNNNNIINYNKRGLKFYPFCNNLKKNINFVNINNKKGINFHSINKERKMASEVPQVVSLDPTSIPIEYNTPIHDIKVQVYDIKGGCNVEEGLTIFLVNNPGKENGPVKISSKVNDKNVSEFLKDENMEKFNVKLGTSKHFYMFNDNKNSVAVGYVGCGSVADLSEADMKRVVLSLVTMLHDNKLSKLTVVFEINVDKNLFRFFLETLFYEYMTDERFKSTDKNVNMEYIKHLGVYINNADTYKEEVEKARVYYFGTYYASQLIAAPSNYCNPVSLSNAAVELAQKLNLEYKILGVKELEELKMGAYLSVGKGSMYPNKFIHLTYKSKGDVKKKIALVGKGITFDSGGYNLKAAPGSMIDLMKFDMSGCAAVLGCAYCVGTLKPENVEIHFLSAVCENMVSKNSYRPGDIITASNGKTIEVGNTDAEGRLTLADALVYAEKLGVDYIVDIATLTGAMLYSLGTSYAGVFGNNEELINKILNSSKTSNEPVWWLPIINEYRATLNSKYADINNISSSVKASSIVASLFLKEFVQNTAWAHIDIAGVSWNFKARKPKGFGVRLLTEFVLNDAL

fMet-Leu-Phe receptor = fMet-Leu-Phe receptor (Homo sapiens, UniProt P21462); assay: FPR ligands, dose response (AID 519); format: functional
fMet-Leu-Phe receptor, sequence (P21462 whole entry): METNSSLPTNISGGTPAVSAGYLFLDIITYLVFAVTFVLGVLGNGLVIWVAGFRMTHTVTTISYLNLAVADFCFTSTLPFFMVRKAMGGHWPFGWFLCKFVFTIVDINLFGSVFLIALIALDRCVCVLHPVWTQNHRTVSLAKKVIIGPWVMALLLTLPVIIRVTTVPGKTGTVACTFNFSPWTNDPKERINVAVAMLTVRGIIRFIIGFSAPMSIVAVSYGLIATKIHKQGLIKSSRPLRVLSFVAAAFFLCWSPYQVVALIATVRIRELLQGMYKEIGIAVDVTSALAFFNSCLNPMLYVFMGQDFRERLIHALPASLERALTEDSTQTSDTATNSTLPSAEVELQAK

Procathepsin L = Procathepsin L (Homo sapiens, UniProt P07711); assay: cathepsin L inhibitors, dose response, counter-screen for M1/M17 aminopeptidase inhibitor project, biochemical, QFRET, 1536-well (AID 2214)
Procathepsin L, sequence (P07711 whole entry): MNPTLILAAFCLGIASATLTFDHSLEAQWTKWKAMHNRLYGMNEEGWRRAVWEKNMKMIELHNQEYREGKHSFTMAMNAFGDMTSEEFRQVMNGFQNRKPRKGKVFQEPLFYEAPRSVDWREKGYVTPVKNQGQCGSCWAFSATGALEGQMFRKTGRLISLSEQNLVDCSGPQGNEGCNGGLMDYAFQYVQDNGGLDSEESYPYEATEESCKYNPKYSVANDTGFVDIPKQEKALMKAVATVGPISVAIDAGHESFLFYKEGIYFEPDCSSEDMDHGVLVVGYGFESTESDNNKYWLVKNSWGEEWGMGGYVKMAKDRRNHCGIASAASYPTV

[7] = molecular target: T3, Probable nicotinate-nucleotide adenylyltransferase (Staphylococcus aureus (strain N315), UniProt P65502); format: functional, Staphylococcus aureus subsp. aureus N315;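 as to IC50 Mean: confirmatory dose-response retesting of NadD inhibitor hits first found in an ultra-high-throughput screen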
T3 sequence (P65502 whole entry): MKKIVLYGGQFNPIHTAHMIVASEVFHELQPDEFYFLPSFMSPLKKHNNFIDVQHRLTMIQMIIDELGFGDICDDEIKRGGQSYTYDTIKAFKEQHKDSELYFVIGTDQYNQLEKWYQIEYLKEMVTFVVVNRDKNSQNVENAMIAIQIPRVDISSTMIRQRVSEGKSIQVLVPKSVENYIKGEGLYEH

[8] = molecular target: T3, Probable nicotinate-nucleotide adenylyltransferase; format: functional, Staphylococcus aureus subsp. aureus N315; settings: read-out: IC50_Mean
[9] = molecular target: Long-chain-fatty-acid--AMP ligase FadD28 (Mycobacterium tuberculosis, UniProt P9WQ59); assay: Fluorescence polarization aasay to screen for inhibitors that compete for the binding of FadD28 to a bisubstrate Measured in Biochemical System Using Plate Reader - 2147-01_Inhibitor_Dose_CherryPick_Activity.; format: functional, Mycobacterium tuberculosis H37Rv
Long-chain-fatty-acid--AMP ligase FadD28, sequence (P9WQ59 whole entry): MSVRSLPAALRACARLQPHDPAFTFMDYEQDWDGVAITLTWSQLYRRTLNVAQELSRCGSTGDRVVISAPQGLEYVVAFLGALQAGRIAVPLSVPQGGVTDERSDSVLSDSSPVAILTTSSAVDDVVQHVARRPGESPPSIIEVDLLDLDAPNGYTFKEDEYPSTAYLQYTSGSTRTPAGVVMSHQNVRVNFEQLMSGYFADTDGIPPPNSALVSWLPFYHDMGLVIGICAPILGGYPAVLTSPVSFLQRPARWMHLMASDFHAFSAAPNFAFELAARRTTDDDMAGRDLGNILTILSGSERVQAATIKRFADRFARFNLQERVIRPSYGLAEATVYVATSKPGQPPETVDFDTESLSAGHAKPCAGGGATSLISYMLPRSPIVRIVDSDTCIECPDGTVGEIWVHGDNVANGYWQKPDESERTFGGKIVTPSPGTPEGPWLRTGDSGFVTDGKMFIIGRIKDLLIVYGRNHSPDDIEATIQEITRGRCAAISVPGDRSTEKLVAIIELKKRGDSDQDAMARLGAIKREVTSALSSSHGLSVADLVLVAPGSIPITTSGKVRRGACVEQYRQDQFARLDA

[10] = molecular target: T4, Rac GTPase-activating protein 1 (Homo sapiens, UniProt Q9H0H5); assay: MgcRacGAP GTPase-activating activity inhibitors, confirmation, biochemical, ADP Hunter fluorescence, primary and confirmatory (AID 624330); format: functional
T4 sequence (Q9H0H5 whole entry): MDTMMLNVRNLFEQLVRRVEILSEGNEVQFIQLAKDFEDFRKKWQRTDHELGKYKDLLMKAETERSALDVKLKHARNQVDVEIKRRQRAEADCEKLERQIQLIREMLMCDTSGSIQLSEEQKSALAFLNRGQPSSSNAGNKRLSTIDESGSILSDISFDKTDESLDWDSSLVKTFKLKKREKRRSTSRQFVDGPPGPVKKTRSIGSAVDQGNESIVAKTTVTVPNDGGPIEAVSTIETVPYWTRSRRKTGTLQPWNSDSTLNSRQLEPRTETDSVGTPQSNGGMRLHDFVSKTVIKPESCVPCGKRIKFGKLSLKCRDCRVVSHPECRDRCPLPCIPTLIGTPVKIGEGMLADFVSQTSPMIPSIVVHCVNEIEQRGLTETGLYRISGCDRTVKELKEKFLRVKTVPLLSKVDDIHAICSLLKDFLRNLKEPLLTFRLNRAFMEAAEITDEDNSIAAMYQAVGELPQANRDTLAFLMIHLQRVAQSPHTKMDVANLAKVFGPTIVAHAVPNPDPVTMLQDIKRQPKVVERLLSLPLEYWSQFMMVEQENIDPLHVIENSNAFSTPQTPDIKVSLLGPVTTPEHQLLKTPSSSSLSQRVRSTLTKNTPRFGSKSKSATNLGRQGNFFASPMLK

[11] = molecular target: T5, Small ubiquitin-related modifier 1 (Homo sapiens, UniProt P63165); assay: inhibitors of SUMO1 peptide binding, dose response, biochemical, fluorescence polarization, uHTS hits (AID 624382); format: functional; settings: read-out: IC50_Mean
T5 sequence (P63165 whole entry): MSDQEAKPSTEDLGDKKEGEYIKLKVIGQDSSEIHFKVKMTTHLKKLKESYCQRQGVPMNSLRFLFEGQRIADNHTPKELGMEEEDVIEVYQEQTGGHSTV

[12] = molecular target: T5, Small ubiquitin-related modifier 1; assay: inhibitors of SUMO1 partner interactions, dose response, biochemical, FRET (AID 624383); format: functional; settings: read-out: IC50_Mean
[13] = molecular target: 72 kDa type IV collagenase (Homo sapiens, UniProt P08253); assay: Dose Response validation of uHTS RPN11 inhibitor hits using a MMP-2 Fluorescence assay.; format: functional
72 kDa type IV collagenase, sequence (P08253 whole entry): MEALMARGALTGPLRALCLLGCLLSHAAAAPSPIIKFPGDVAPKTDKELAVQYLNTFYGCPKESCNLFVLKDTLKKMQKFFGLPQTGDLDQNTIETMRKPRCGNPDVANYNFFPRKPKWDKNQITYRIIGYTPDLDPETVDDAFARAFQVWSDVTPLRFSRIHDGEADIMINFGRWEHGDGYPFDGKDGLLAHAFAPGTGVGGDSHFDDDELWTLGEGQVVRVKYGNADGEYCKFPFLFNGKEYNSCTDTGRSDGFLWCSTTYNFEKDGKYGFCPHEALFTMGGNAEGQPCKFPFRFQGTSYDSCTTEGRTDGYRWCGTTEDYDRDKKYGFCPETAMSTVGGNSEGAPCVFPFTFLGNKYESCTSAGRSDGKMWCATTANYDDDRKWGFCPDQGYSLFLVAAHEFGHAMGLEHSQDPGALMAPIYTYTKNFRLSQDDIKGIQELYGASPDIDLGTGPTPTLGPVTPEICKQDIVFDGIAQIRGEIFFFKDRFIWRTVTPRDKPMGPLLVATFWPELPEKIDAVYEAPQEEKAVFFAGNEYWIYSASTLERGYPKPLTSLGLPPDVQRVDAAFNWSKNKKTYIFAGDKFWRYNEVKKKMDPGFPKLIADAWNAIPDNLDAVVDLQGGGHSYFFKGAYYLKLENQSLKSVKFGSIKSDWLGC

[14] = molecular target: 26S proteasome non-ATPase regulatory subunit 14 (Homo sapiens, UniProt O00487); assay: inhibition of proteasome subunit RPN11 – biochemical, fluorescence polarization, uHTS hits, confirmation (AID 602368); format: functional
26S proteasome non-ATPase regulatory subunit 14, sequence (O00487 whole entry): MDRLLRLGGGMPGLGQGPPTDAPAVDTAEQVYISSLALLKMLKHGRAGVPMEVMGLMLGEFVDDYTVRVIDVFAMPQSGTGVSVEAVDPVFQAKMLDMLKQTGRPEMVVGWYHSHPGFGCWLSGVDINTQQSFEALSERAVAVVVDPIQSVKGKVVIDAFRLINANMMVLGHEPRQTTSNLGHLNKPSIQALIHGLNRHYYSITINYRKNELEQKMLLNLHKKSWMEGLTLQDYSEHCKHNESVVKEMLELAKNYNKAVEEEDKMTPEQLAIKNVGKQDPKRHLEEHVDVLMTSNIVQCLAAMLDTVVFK

Prothrombin = Prothrombin (Bos taurus, UniProt P00735); assay: thrombin inhibition, dose response, biochemical, fluorescence polarization, uHTS hits (AID 602369); format: functional
[15] = AlphaScreen signal interference compounds, dose response, artefact control for ARNT-TACC3 interaction inhibitor project, biochemical, luminescence, cherry-pick (AID 651705); format: functional;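 also: AlphaScreen bead proximity signal that flags compounds interfering with the detection technology; potency reflects signal decrease which marks the compound as an assay artifact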
[16] = molecular target: T6, Sentrin-specific protease 1 (Homo sapiens, UniProt Q9P0U3); assay: potency of human SENP1 inhibitors, dose response, biochemical, kinetic FRET (AID 651697); format: functional; settings: read-out: IC50_Mean
T6 sequence (Q9P0U3 whole entry, the tested form may be a part): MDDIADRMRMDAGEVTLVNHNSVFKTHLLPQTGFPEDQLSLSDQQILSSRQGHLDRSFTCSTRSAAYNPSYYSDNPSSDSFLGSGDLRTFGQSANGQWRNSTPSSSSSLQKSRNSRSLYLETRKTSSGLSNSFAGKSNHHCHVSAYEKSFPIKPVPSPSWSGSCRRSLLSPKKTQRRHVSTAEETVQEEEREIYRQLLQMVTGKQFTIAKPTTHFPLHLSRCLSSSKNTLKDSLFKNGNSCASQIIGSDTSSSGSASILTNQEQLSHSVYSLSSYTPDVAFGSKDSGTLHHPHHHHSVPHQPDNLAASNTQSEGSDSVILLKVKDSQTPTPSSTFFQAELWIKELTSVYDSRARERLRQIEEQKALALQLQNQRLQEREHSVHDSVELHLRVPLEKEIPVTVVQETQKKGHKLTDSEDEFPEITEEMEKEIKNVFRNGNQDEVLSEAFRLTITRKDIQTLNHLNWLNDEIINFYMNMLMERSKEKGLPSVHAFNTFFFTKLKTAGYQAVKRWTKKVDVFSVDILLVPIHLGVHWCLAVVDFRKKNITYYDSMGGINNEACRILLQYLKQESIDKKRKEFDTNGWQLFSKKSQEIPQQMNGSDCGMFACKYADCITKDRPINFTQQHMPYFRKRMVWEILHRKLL

[17] = molecular target: T6, Sentrin-specific protease 1; assay: Dose response confirmation of small molecule inhibitors of the catalytic domain of the SUMO protease, SENP1 in a FRET assay.; format: functional; settings: read-out: IC50_Mean

With `NC1=NC[C@H](Cc2ccc(O)cc2)N1CCCCC1CCCCC1` the IC50 [1] was 4.52 µM (active), the EC50 [2] was 15.9 µM (active) and the IC50 (Jurkat) was 8.18 µM (active). For the same compound, the EC50 [3] was 1.4 µM (active), the AC50 (INS1) was 2.43 µM (active) and the EC50 [4] was > 60 µM (not active). The IC50 [5] was 3.72 µM (active) and the IC50 [6] was 67.6 µM (inactive).
For `CCOC(=O)c1c(-c2ccc(-c3ccccc3)cc2)csc1NC(=O)C1C2CCC(O2)C1C(=O)O` (stereo not given), the IC50 (Genome polyprotein) was 29.6 µM (active), the IC50 (Aspartyl aminopeptidase) was 38.5 µM (not active) and the IC50 (Leucine aminopeptidase) was 6.09 µM (active). For the same compound, the Ki (fMet-Leu-Phe receptor) was > 66.7 µM (inactive), the IC50 (Procathepsin L) was > 59.6 µM (not active) and the IC50 [7] was 5.15 µM (active). The IC50 [8] was 15.3 µM (active).
With `CCc1ccc(NC(=S)N(Cc2ccc(Cl)cc2)Cc2ccc(C(=O)O)cc2)cc1` the AC50 [9] was > 100 µM (inactive).
For `CCCc1c(C)nc2ccc(C(=O)O)cc2c1S`, the IC50 [10] was 72.6 µM (active), the IC50 [11] was > 66.6 µM (inactive) and the IC50 [12] was 18 µM (active). For the same compound, the IC50 [13] was > 100 µM (inactive), the IC50 [14] was 22.8 µM (active) and the IC50 (Prothrombin) was 72.7 µM (active).
In the case of `COCCn1c(-c2ccccc2)cnc1N`, the AC50 [15] is reported as 115 µM (active).
With `CC(=O)Oc1ccc(Cl)cc1/C=C/c1ccc2ccccc2n1` the IC50 [16] was 3.28 µM (active) and the IC50 [17] was 2.22 µM (active).
